Test results from patent US20260126382A1, “INTELLIGENT NIR II PHOTOTHERMAL AND COLORIMETRIC SENSING TECHNOLOGY” (Nanyang Technological University, priority 2022, published 2026).

Key:
myrosinase (Myr) [1] = assay: Effect of interfering substances (metal ions, small molecules, amino acids, EDTA) on the Myr test system; format: biochemical; details: interfering substances 1 mM, FIG. 17C
Procedure: (§1) For Myr detection, Sin (2.5 mM, 30 μL) and GOx (5 mg/mL, 10 μL, according to previous literature (Jiang, C. et al., RSC Adv. 2017, 7, 44463-44469)) were mixed with different concentrations of Myr first, and reacted at 37° C. for 30 min to generate H2O2. Then, an acetate buffer containing TMB and AuNPs was added into the aforementioned solution, incubated at 45° C. for 25 min, and cooled to room temperature. Afterward, the solution was used for the analysis of Myr enzyme activity.
For the anti-interference experiments discussed below, Sin (2.5 mM, 30 μL) and GOx (5 mg/mL, 10 μL) were mixed with different interfering substances first and reacted at 37° C. for 30 min. Then, acetate buffer containing TMB and AuNPs were added into the above solution, incubated at 45° C. for 25 min, and cooled to room temperature, and afterwards, the solution was used for photothermal and colorimetric analysis.

[2] = Peroxidase-like (POD-like) activity in the TMB+H2O2 system, Abs1064 nm; format: biochemical; details: TMB+H2O2 system with HRP, FIG. 11
[3] = natural enzyme, from literature; cited from earlier work
myrosinase (Myr) [4] = assay: Effect of Sin concentration on the Sin+Myr+GOx+TMB+AuNPs system; format: biochemical; details: Myr 0.5 mg/mL, GOx 0.5 mg/mL, TMB 1.5 mM, AuNPs 0.45 nM
Procedure: as §1
Before testing different Myr concentrations, it is necessary to determine the maximum Sin concentration that can be applied. FIG. 16 illustrates that when the concentration of Sin exceeds 0.75 mM, the working efficiency decreases and the blue color becomes faint because excess Sin binds to the active regulatory sites of Myr, thereby inhibiting the activity of Myr to hydrolyze Sin. As a result, 0.75 mM was selected as the maximum Sin concentration for detecting commercial Myr at varying concentrations and constructing a standard curve. As shown in FIGS. 17A-B and 18, when Sin was present at a concentration of 0.75 mM, Myr was detectable in the range of 0-345 mU/mL, and its linear detection range in the absorption spectrum was 0 to 172.5 mU/mL with an LOD of 2.96 mU/mL.

Row | inhibitory effect on Myr activity (myrosinase (Myr) [1]) | Compound | further results
1 | inhibit Myr activity | O=C1O[C@H]([C@@H](O)CO)C(O)=C1O [Vc, Vitamin C] | 
2 |  | horseradish peroxidase [HRP] | slope of Abs1064 nm vs. c(HRP) [2]: 0.04644 nM⁻¹; temperature beyond which activity is lost [3]: exceeds 50 °C
3 |  | C=CC/C(=N/OS(=O)(=O)[O-])S[C@@H]1OC(CO)[C@@H](O)C(O)C1O.[K+] (stereo partly shown) [Sin, Sinigrin] | Sin concentration above which working efficiency decreases (excess Sin inhibiting the activity of Myr) (myrosinase (Myr) [4]): exceeds 0.75 mM
4 | strongest inhibitory effect | [Cu+2] [Cu^2+] | 
5 | inhibit Myr activity | N[C@@H](CS)C(=O)O [Cys] | 
6 | inhibit Myr activity | N[C@@H](CCC(=O)N[C@@H](CS)C(=O)NCC(=O)O)C(=O)O [GSH] | 
